These results are taken from publication PMC5023640, “Purification and characterization of an extracellular β-xylosidase from Pseudozyma hubeiensis NCIM 3574 (PhXyl), an unexplored yeast” (AMB Express, 2016).

The target in this test is T1, PhXyl (extracellular β-xylosidase) (Pseudozyma hubeiensis, UniProt R9NZV8).
T1 construct: gene PHSY_001848; native extracellular enzyme purified from culture supernatant
T1 sequence (R9NZV8 24-873): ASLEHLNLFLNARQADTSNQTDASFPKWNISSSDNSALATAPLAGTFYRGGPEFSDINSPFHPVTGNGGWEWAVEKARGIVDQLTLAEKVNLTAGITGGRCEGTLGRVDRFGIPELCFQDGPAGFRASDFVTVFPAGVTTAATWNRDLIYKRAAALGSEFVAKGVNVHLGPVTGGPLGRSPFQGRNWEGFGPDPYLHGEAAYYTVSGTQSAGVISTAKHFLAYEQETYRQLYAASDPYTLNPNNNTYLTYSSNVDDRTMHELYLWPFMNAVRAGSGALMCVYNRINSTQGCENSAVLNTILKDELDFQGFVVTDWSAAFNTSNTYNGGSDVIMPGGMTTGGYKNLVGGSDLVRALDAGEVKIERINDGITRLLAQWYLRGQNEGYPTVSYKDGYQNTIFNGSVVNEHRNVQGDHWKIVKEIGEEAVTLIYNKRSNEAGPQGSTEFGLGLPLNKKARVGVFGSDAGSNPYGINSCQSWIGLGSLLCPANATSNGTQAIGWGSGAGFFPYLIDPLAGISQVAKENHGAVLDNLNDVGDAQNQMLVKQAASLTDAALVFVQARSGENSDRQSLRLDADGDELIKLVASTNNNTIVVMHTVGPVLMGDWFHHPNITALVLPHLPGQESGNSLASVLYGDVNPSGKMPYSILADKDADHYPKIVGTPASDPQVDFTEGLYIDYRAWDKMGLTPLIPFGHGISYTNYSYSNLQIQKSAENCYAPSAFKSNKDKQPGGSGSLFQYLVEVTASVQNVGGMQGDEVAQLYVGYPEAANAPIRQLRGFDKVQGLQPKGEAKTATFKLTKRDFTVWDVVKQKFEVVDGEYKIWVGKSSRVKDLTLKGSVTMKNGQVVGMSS
Nature of the test: inhibition of pNPX hydrolysis. It counts as biochemical. As to conditions: read-out: % activity at 75 mM.

`OC1OC[C@@H](O)[C@H](O)[C@H]1O` (stereo partly shown) [xylose]: the activity at 75000 µM was determined as 50%.
